Source: patent US10414811B2, “Protease-resistant lipidated GLP-1 analogs” (MEDIMMUNE LIMITED, priority 2015, dated 2019)
Where two headings read alike, the source gives them in different places. Numbered stars: 1 amine (or outer) side, 2 acyl side, 3 side chain; on linkers, the order of the positions; unused ones are H or OH. Square brackets hold non-standard residues; d marks the D form. Side chains are listed from the residue outwards. Peptide text beside a SMILES is read from it. * marks the point of attachment. γGlu = O=C(O)[C@H](CCC(=O)[*:2])N[*:1]; Palmitoyl = CCCCCCCCCCCCCCCC(=O)*; αMeF = C[C@](N)(Cc1ccccc1)C(=O)O; αMeK = C[C@](N)(CCCCN)C(=O)O; Lauroyl = CCCCCCCCCCCC(=O)*; αMeS = C[C@](N)(CO)C(=O)O; AEEA = NCCOCCOCC(=O)O; Aib = CC(C)(N)C(=O)O

Legend:
Type in all cases: cell-based
GLP-1R (INS1e assay) = biological target: T1, GLP-1R (INS1e assay) (Rattus norvegicus, UniProt P32301); test: INS1e assay, cAMP activity at GLP-1R
T1 construct: endogenous in cells; host or cells: INS-1E cells
T1 sequence (P32301 22-463): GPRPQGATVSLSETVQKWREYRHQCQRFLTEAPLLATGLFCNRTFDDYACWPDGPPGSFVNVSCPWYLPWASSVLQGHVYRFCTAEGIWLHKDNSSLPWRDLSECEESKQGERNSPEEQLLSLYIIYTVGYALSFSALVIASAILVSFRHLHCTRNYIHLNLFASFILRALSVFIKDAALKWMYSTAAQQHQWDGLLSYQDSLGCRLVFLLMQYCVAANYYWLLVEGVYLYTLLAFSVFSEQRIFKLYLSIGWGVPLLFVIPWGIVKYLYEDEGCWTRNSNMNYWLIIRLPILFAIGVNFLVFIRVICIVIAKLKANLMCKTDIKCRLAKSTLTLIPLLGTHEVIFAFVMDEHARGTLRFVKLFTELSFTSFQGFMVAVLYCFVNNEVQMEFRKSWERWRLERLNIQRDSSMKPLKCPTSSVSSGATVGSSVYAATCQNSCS
Summary of the method: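 cAMP was quantified by two-step HTRF, using anti-cAMP cryptate donor and cAMP-d2 acceptor, each diluted 1/20 in conjugate and lysis buffer. EC50 values of the synthetic peptides were derived from the cAMP readout.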

[1] = biological target: T2, human glucagon receptor (GCGR) (Homo sapiens, UniProt P47871); test: cAMP assay, human GCGR cells
T2 construct: expressed in transfected cells
Summary of the method: (§1)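 Peptide-stimulated cAMP measured by two-step HTRF after a 30 min room-temperature incubation with receptor-expressing cells (hGLP-1R, hGIPR at 1×10^5 cells/ml; hGCGR at 2×10^5 cells/ml). Duplicate dilutions; EC50 from 4-parameter logistic fit of % Delta F.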

[2] = biological target: T3, human GLP-1 receptor (GLP-1R) (Homo sapiens, UniProt P43220); test: cAMP assay, human GLP-1R cells
T3 construct: expressed in transfected cells
Summary of the method: as §1

[3] = biological target: T4, human glucose-dependent insulinotropic peptide receptor (GIPR) (Homo sapiens, UniProt P48546); test: cAMP assay, human GIPR cells
T4 construct: expressed in transfected cells
T4 sequence (P48546 22-466): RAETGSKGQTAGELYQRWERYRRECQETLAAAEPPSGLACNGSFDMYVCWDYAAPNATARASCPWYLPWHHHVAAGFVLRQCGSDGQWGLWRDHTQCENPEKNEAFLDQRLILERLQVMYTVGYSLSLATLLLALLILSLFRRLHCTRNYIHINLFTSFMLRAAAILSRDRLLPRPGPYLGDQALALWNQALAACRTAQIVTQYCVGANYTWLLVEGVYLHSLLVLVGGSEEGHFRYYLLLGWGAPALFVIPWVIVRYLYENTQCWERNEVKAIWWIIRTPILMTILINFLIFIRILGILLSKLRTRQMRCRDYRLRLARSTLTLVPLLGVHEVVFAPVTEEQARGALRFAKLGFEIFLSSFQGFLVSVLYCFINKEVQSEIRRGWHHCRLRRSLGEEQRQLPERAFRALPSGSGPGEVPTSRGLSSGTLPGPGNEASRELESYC
Summary of the method: as §1

[4] = mono-lipidated peptides, mean of n1 and n2, read-out: INS1e assay EC50 Mean pM GLP-1R
[5] = mono-lipidated peptides, replicate n1, read-out: INS1e assay EC50 GLP-1R n1
[6] = mono-lipidated peptides, replicate n2, read-out: INS1e assay EC50 GLP-1R n2
[7] = cAMP assay, first determination (n1), read-out: Primary assay EC50 GLP-1R n1
[8] = cAMP assay, second determination (n2), read-out: Primary assay EC50 GLP-1R n2
[9] = mean of n1 and n2, read-out: Mean pM GLP-1R
[10] = cAMP assay, first determination (n1), read-out: Primary assay EC50 Gluc-R (n1)
[11] = cAMP assay, second determination (n2), read-out: Primary assay EC50 Gluc-R (n2)
[12] = cAMP assay, first determination (n1), read-out: Primary assay EC50 GIP-R (n1)
[13] = cAMP assay, second determination (n2), read-out: Primary assay EC50 GIP-R (n2)

T3 sequence (P43220 24-463): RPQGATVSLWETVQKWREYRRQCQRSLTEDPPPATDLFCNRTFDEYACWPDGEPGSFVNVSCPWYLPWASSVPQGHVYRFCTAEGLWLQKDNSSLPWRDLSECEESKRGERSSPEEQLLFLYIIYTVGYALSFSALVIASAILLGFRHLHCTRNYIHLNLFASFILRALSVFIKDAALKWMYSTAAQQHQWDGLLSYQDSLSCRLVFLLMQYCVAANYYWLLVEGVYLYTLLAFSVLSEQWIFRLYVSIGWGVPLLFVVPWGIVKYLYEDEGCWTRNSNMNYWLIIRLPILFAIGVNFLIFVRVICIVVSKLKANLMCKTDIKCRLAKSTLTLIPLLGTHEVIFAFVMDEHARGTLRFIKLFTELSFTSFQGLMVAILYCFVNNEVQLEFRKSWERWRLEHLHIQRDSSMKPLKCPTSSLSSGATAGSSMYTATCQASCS
T2 sequence (P47871 26-477): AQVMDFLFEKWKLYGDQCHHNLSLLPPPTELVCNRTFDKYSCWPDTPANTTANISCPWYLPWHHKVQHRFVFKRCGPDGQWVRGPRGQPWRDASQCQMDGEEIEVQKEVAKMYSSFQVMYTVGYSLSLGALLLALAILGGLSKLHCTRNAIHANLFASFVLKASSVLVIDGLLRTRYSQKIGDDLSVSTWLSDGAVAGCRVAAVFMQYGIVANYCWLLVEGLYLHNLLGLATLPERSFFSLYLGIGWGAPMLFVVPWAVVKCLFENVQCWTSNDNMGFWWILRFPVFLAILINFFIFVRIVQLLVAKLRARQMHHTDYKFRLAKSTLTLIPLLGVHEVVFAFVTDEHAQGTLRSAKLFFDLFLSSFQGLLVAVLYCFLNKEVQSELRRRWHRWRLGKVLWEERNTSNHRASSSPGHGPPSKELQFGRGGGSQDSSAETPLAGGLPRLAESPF

| Structure (SMILES) | EC50 (GLP-1R (INS1e assay); [4]) [pM] | EC50 (GLP-1R (INS1e assay); [5]) [pM] | EC50 (GLP-1R (INS1e assay); [6]) [pM] | EC50 [2, 7] [pM] | EC50 [2, 8] [pM] | EC50 [2, 9] [pM] | EC50 [1, 10] [nM] | EC50 [1, 11] [nM] | EC50 [3, 12] [nM] | EC50 [3, 13] [nM] | other results |
| --- | --- | --- | --- | --- | --- | --- | --- | --- | --- | --- | --- |
| CC[C@H](C)[C@H](NC(=O)[C@](C)(Cc1ccccc1)NC(=O)[C@H](CCC(=O)O)NC(=O)[C@H](CCCCNC(=O)CCCCCNC(=O)CCCCCCCCCCCOc1ccc(C(=O)O)cc1)NC(=O)[C@H](C)NC(=O)[C@H](C)NC(=O)[C@H](CCC(=O)O)NC(=O)CNC(=O)[C@H](CCC(=O)O)NC(=O)[C@H](CC(C)C)NC(=O)[C@](C)(Cc1ccccc1)NC(=O)[C@H](CO)NC(=O)[C@](C)(CO)NC(=O)[C@@H](NC(=O)[C@H](CC(=O)O)NC(=O)[C@H](CO)NC(=O)[C@@H](NC(=O)[C@](C)(Cc1ccccc1)NC(=O)[C@H](CO)NC(=O)CNC(=O)[C@H](CCC(=O)O)NC(=O)C(C)(C)NC(=O)[C@@H](N)Cc1c[nH]cn1)[C@@H](C)O)C(C)C)C(=O)N[C@@H](C)C(=O)N[C@@](C)(Cc1ccccc1)C(=O)N[C@H](C(=O)N[C@H](C(=O)N[C@@](C)(CCCCN)C(=O)NCC(=O)NCC(N)=O)C(C)C)C(C)C [compound 140] | 30 | 43.2 | 16.7 | 5.9 | 3.9 | 4.9 | – | – | – | – | EC50 ([1]; Primary assay EC50 Gluc-R (n1), cAMP assay, first determination (n1)): ≥ 27 nM; EC50 ([1]; read-out: Primary assay EC50 Gluc-R (n2), cAMP assay, second determination (n2)): ≥ 27 nM; EC50 ([3]; Primary assay EC50 GIP-R (n1), cAMP assay, first determination (n1)): ≥ 27 nM; EC50 ([3]; read-out: Primary assay EC50 GIP-R (n2), cAMP assay, second determination (n2)): ≥ 27 nM |
| CCCCCCCCCCCC(=O)N[C@@H](CCC(=O)NCCOCCOCC(=O)NCCOCCOCC(=O)NCCCC[C@H](NC(=O)[C@H](C)NC(=O)[C@@H](NC(=O)[C@H](Cc1ccc(OC)cc1)NC(=O)[C@H](CCC(=O)O)NC(=O)[C@](C)(CCCCN)NC(=O)[C@H](C)NC(=O)[C@H](C)NC(=O)[C@H](CCC(=O)O)NC(=O)CNC(=O)[C@H](CCC(=O)O)NC(=O)[C@H](CC(C)C)NC(=O)[C@H](CCCCNC(=O)COCCOCCNC(=O)COCCOCCNC(=O)CC[C@H](NC(=O)CCCCCCCCCCC)C(=O)O)NC(=O)[C@H](CO)NC(=O)[C@](C)(CO)NC(=O)[C@@H](NC(=O)[C@H](CC(=O)O)NC(=O)[C@H](CO)NC(=O)[C@@H](NC(=O)[C@](C)(Cc1ccccc1)NC(=O)[C@H](CO)NC(=O)CNC(=O)[C@H](CCC(=O)O)NC(=O)C(C)(C)NC(=O)[C@@H](N)Cc1c[nH]cn1)[C@@H](C)O)C(C)C)[C@@H](C)CC)C(=O)N[C@H](C(=O)N[C@H](C(=O)N[C@@H](CCC(=O)O)C(=O)NCC(=O)NCC(N)=O)C(C)C)C(C)C)C(=O)O [compound 406] (H-H[Aib]EGS[αMeF]TSDV[αMeS]SK([AEEA-AEEA-γGlu-Lauroyl])LEGEAA[αMeK]EY(Me)IAK([AEEA-AEEA-γGlu-Lauroyl])VVEGG-NH2; N-terminus assumed) | – | – | – | – | – | – | – | – | – | – | EC50 (GLP-1R (INS1e assay); bis-lipidated peptides, mean of n1 and n2, read-out: INS1e assay EC50 Mean pM GLP-1R): 94 pM; EC50 (GLP-1R (INS1e assay); bis-lipidated peptides, replicate n1, read-out: INS1e assay EC50 GLP-1R n1): 101 pM; EC50 (GLP-1R (INS1e assay); bis-lipidated peptides, replicate n2, read-out: INS1e assay EC50 GLP-1R n2): 87.2 pM; EC50 ([1]; bis-lipidated peptides, first replicate, read-out: Primary assay EC50 Gluc-R (n1)): ≥ 21.5 nM; EC50 ([2]; bis-lipidated peptides, replicate n1, read-out: Primary assay EC50 GLP-1R n1): 2.19 pM; EC50 ([2]; bis-lipidated peptides, replicate n2, read-out: Primary assay EC50 GLP-1R n2): 2.31 pM; EC50 ([3]; bis-lipidated peptides, first replicate, read-out: Primary assay EC50 GIP-R (n1)): ≥ 21.5 nM |
| CCCCCCCCCCCCCCCC(=O)N[C@@H](CCC(=O)NCCCC[C@H](NC(=O)[C@H](CCC(=O)O)NC(=O)CNC(=O)[C@H](CCC(=O)O)NC(=O)[C@H](CC(C)C)NC(=O)[C@](C)(Cc1ccccc1)NC(=O)[C@H](CO)NC(=O)[C@](C)(CO)NC(=O)[C@@H](NC(=O)[C@H](CC(=O)O)NC(=O)[C@H](CO)NC(=O)[C@@H](NC(=O)[C@](C)(Cc1ccccc1)NC(=O)[C@H](CO)NC(=O)CNC(=O)[C@H](CCC(=O)O)NC(=O)C(C)(C)NC(=O)[C@@H](N)Cc1c[nH]cn1)[C@@H](C)O)C(C)C)C(=O)N[C@@H](C)C(=O)N[C@@](C)(CCCCN)C(=O)N[C@@H](CCC(=O)O)C(=O)N[C@@](C)(Cc1ccccc1)C(=O)N[C@H](C(=O)N[C@@H](C)C(=O)N[C@@](C)(Cc1ccccc1)C(=O)N[C@H](C(=O)N[C@H](C(=O)N[C@@](C)(CCCCN)C(=O)NCC(=O)NCC(N)=O)C(C)C)C(C)C)[C@@H](C)CC)C(=O)O [compound 82] (H-H[Aib]EGS[αMeF]TSDV[αMeS]S[αMeF]LEGEK([γGlu-Palmitoyl])A[αMeK]E[αMeF]IA[αMeF]VV[αMeK]GG-NH2; N-terminus assumed) | 195 | 151 | 238 | 3 | 2 | 2.5 | ≥ 27 | ≥ 27 | ≥ 27 | ≥ 27 | – |
| CC[C@H](C)[C@H](NC(=O)[C@H](CCCCNC(=O)COCCOCCNC(=O)COCCOCCNC(=O)CC[C@H](NC(=O)CCCCCCCCCCCCCCCCC(=O)O)C(=O)O)NC(=O)[C@H](CCC(=O)O)NC(=O)[C@](C)(CCCCN)NC(=O)[C@H](C)NC(=O)[C@H](C)NC(=O)[C@H](CCC(=O)O)NC(=O)CNC(=O)[C@H](CCC(=O)O)NC(=O)[C@H](CC(C)C)NC(=O)[C@](C)(Cc1ccccc1)NC(=O)[C@H](CO)NC(=O)[C@](C)(CO)NC(=O)[C@@H](NC(=O)[C@H](CC(=O)O)NC(=O)[C@H](CO)NC(=O)[C@@H](NC(=O)[C@](C)(Cc1ccccc1)NC(=O)[C@H](CO)NC(=O)CNC(=O)[C@H](CCC(=O)O)NC(=O)C(C)(C)NC(=O)[C@@H](N)Cc1c[nH]cn1)[C@@H](C)O)C(C)C)C(=O)N[C@@H](C)C(=O)N[C@@](C)(Cc1ccccc1)C(=O)N[C@H](C(=O)N[C@H](C(=O)N[C@@](C)(CCCCN)C(=O)NCC(=O)NCC(N)=O)C(C)C)C(C)C [compound 107] | 8460 | 5230 | 11700 | 83 | 70.5 | 77 | ≥ 26 | ≥ 25.6 | ≥ 26 | ≥ 25.6 | – |
| CCCCCCCCCCCCCCCC(=O)N[C@@H](CCC(=O)NCCCC[C@H](NC(=O)[C@](C)(Cc1ccccc1)NC(=O)[C@H](C)NC(=O)[C@@H](NC(=O)[C@](C)(Cc1ccccc1)NC(=O)[C@H](CCC(=O)O)NC(=O)[C@](C)(CCCCN)NC(=O)[C@H](C)NC(=O)[C@H](C)NC(=O)[C@H](CCC(=O)O)NC(=O)CNC(=O)[C@H](CCC(=O)O)NC(=O)[C@H](CC(C)C)NC(=O)[C@](C)(Cc1ccccc1)NC(=O)[C@H](CO)NC(=O)[C@](C)(CO)NC(=O)[C@@H](NC(=O)[C@H](CC(=O)O)NC(=O)[C@H](CO)NC(=O)[C@@H](NC(=O)[C@](C)(Cc1ccccc1)NC(=O)[C@H](CO)NC(=O)CNC(=O)[C@H](CCC(=O)O)NC(=O)C(C)(C)NC(=O)[C@@H](N)Cc1c[nH]cn1)[C@@H](C)O)C(C)C)[C@@H](C)CC)C(=O)N[C@H](C(=O)N[C@@](C)(CCCCN)C(=O)NCC(=O)NCC(N)=O)C(C)C)C(=O)O [compound 74] (H-H[Aib]EGS[αMeF]TSDV[αMeS]S[αMeF]LEGEAA[αMeK]E[αMeF]IA[αMeF]K([γGlu-Palmitoyl])V[αMeK]GG-NH2) | 102 | 77.4 | 127 | 2.3 | – | – | ≥ 28 | ≥ 28 | ≥ 28 | ≥ 28 | – |
